Data taken from US10800816B2 (Baxalta GmbH, priority 2012, dated 2020).
pEC50, pKd: −log10 of the molar value. Values after ≈ are worked out from the molar mass of the structure shown.

Key:
[1] = Pharmacokinetics in C57Bl6 mice; type: in vivo, mouse
TFPI = experiment: FXa inhibition assay (human TFPI); conditions: read-out: FXa Inhibition Assay EC50; Table 7 and text b402
human TFPI-1 = target: T1, human TFPI-1 (Homo sapiens, UniProt P10646); experiment: BIAcore surface plasmon resonance, immobilized human TFPI-1; type: binding; conditions: Table 6
T1 construct: human TFPI-1 (residues 29-282 fused at the C-terminus to a 10 His-tag); purchased R&D Systems 2974-PI
T1 sequence (P10646 29-282): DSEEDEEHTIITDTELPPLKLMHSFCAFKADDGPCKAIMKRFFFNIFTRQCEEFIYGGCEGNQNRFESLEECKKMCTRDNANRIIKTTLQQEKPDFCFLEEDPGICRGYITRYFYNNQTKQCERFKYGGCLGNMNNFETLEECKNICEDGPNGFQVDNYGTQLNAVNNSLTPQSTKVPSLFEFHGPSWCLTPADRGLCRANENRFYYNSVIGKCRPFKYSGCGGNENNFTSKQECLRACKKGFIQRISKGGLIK

[2] = mouse, 24 h
[3] = 24 h
C57Bl/6NCrl mice = experiment: Nail clip bleeding study in mice; type: in vivo, mouse
FVIII-deficient mice = experiment: Puncture-induced hemarthrosis in FVIII-deficient mice; type: in vivo, mouse; conditions: 1 mg/kg i.v.
Experimental: After each product administration, the right knee joint capsule was punctured with a 30 gauge needle to induce hemorrhage. Animals were sacrificed three days following injury, and bleeding was assessed via gross and histological methods. […] Summary bleeding scores (SBS), which include visual and histological bleeding scores, were assigned to each joint. […] The results described herein further confirm that peptides of the invention provide a prophylactic or protective effect against bleeding in an in vivo model of hemophilia A.

FIX knock-out mice = experiment: Tail-tip bleed model in FIX knock-out mice; type: in vivo, mouse; conditions: 1 mg/kg JBT2329 alone
Experimental: JBT2329 also was tested in a FIX knock-out tail-tip bleed mouse model, which is a clinically-relevant model for hemophilia B human patients. The methodology was substantially similar to that described above with respect to the FVIII knock-out model. Instead of ADVATE, a recombinant FIX (rFIX) served as a reference. Median total blood loss in buffer-treated animals was 935 mg. Median total blood loss in animals treated with a murine anti-TFPI antibody (maTFPI) was 774 mg. Median total blood loss was reduced further when the animals received combined treatment of maTFPI and rFIX.

fl-TFPI / ASGPR = target: T2, fl-TFPI / ASGPR (Homo sapiens, UniProt P10646); experiment: BIAcore: fl-TFPI binding to ASGPR in presence of peptide; conditions: 1 μM peptide
T2 sequence (P10646 29-304): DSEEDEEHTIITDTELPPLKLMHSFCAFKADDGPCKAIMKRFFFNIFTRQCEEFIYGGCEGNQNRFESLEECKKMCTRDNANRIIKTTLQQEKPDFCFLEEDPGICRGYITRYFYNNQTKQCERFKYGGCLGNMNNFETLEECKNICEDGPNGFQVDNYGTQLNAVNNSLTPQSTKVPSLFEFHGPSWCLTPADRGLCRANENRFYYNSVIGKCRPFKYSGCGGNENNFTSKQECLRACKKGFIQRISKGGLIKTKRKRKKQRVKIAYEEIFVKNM

FVIII knock-out mice = conditions: 1 mg/kg without ADVATE
[4] = system: FVIII-inhibited whole blood; experiment: Rotation thromboelastography (ROTEM) in whole blood; set-up: species or system human; conditions: Hem A / FVIII-inhibited human whole blood
Experimental: Continuous visco-elastic assessment of human whole blood clot formation and firmness was performed by rotation thromboelastography with whole blood preparations in the presence or absence of peptides. […] Test samples were prepared by dissolving quantities of peptides in either DMSO or HEPES buffered saline (with or without 0.1% Tween 80).
Recordings were made using a ROTEM thromboelastography coagulation analyzer (Pentapharm, Munich, Germany) at 37° C. Briefly, blood is added into a disposable cuvette in a heated cuvette holder. A disposable pin (sensor) is fixed on the tip of a rotating axis. The axis is guided by a high precision ball bearing system and rotates back and forth. The axis is connected with a spring for the measurement of elasticity. The exact position of the axis is detected by the reflection of light on a small mirror on the axis. The loss of elasticity when the sample clots leads to a change in the rotation of the axis. The data obtained are computer analyzed and visualized in a thromboelastogram. […] An elasticity of approximately zero is observed before clot formation begins. Mirror image traces above and below the zero line indicate the effect of clot formation on the rotation of the axis.
The analytical set-up was as follows: to 20 μL of test sample or control, 300 μL of pre-warmed (37° C.) CTI treated citrated whole blood was added, followed by 20 μL of a 1:15 dilution of TF PRP reagent containing recombinant human tissue factor (rTF, 3 pM) (TS40, Thrombinoscope BV, Maastricht, The Netherlands). Coagulation was initiated by the addition of 20 μ200 mM CaCl2 (star-TEM®, Pentapharm, Munich, Germany) and recordings were allowed to proceed for at least 120 min. The final concentration of rTF in the assay was 11 or 44 fM.
The thromboelastographic parameters of clotting time (CT), clot formation time (CFT) and maximum clot firmness (MCF) were recorded in accordance with the manufacturer's instructions. CT is defined as the time from the start of measurement to the start of clot formation. CFT is defined as the time from the start of clot formation until an amplitude of 20 mm is reached. MCF is the maximum difference in amplitude between the two traces during the assay. The first derivative of the data of the thromboelastogram are plotted to obtain a graph of velocity (mm/s) against time (s). From this graph, the maximum velocity (maxV) is determined. The time at which the maximum velocity is obtained (maxV-t) is also determined.
This example describes a method for assessing clot formation in whole blood using rotation thromboelastography (ROTEM). The assay was performed as described in Example 8. The analytical set-up was as follows: 300 μL of pre-warmed (37° C.) CTI treated citrated whole blood was added to a peptide sample (10, 100, 1000 nM final assay concentration) or a control, followed by addition of a 1:15 dilution of TF PRP reagent containing recombinant human tissue factor (rTF, 3 pM) (TS40, Thrombinoscope BV, Maastricht, The Netherlands). In certain experiments, exogenous full length TFPI (flTFPI) at final concentrations of 2 or 10 nM was added to simulate flTFPI plasma levels of up to 50-fold over normal. Coagulation was initiated by the addition of 20 μL 200 mM CaCl2 (star-TEM®, Pentapharm, Munich, Germany) and recordings were allowed to proceed for at least 120 min. The final concentration of rTF in the assay was 44 fM. The thromboelastographic parameters of clotting time (CT), clot formation time (CFT) and maximum clot firmness (MCF) were recorded in accordance with the manufacturer's instructions. CT is defined as the time from the start of measurement to the start of clot formation. CFT is defined as the time from the start of clot formation until an amplitude of 20 mm is reached. MCF is the maximum difference in amplitude between the two traces during the assay.

fl-TFPI / LRP = target: T3, fl-TFPI / LRP (Homo sapiens, UniProt P10646); experiment: BIAcore: fl-TFPI binding to LRP in presence of peptide; conditions: 1 μM peptide, 10 nM fl-TFPI
T3 sequence (P10646 29-304): T2 sequence (P10646 29-304)
T3 sequence (Q07954 852-1182 partner limits assumed): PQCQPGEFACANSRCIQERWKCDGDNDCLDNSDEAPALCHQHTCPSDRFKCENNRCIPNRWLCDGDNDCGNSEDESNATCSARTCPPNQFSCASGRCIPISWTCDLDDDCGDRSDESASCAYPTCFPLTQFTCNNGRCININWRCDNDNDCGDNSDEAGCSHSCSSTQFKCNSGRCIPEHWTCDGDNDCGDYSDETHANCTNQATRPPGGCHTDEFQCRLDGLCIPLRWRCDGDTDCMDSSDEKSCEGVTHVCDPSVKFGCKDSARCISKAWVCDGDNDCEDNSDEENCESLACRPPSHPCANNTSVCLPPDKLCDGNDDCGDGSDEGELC

[5] = 0.1 mg/kg i.v., first 30 minutes
[6] = 0.1 mg/kg i.v., second 30 minute period

## CC(=O)N[C@@H](Cc1ccccc1)C(=O)N[C@@H](CCC(N)=O)C(=O)N[C@@H](CO)C(=O)N[C@@H](CCCCN)C(=O)NCC(=O)N[C@@H](CC(N)=O)C(=O)N[C@H](C(=O)N[C@@H](Cc1ccccc1)C(=O)N[C@H](C(=O)N[C@@H](CC(=O)O)C(=O)NCC(=O)N[C@@H](Cc1ccc(O)cc1)C(=O)N[C@@H](Cc1ccccc1)C(=O)N[C@@H](CCC(=O)O)C(=O)N[C@@H](CCCNC(=N)N)C(=O)N[C@@H](CC(C)C)C(=O)NC(C)(C)C(=O)N[C@@H](C)C(=O)N[C@@H](CCCCN)C(=O)N[C@@H](CC(C)C)C(N)=O)C(C)C)C(C)C [JBT0740]
physchem
  solubility: 920 µg/mL (≈ 392 µM)
[1]; 10 mg/kg i.v., FIG. 31
  plasma concentration after intravenous administration: rapidly cleared from the plasma

## Ac-FQSKNNVFVFGYFERLRAKL-NH2 [JBT0297]
TFPI
  pEC50: 6.22
Human TFPI-1
  pKd: 7.54

## Ac-FQSKpNVHVDGYFERL-Aib-AKLC(PEG)-NH2 [JBT2329] (FQSKPNVHVDGYFERLXAKLC; acetyl, D-Pro, Aib, Cys-PEG 41.5 kD, amide; MOD_RES (1)..(1): N-terminal acetylation; MOD_RES (5)..(5): D-Pro; MOD_RES (17)..(17): Xaa is 2-amino-isobutyric acid; MOD_RES (21)..(21): Cys-PEG; MOD_RES (21)..(21): C-terminal amidation)
[2]
  percentage of initial amount of peptide remaining in plasma: ≥ 60%
[3]
  Human Plasma Stability, 24 hour (%): 67.3%
C57Bl/6NCrl mice; 0.1 mg/kg i.v., 60 minutes
  reduction of total blood loss compared to vehicle: ~60%
C57Bl/6NCrl mice; 0.1 mg/kg i.v., 60 minutes total
  mean blood loss: 34.7 µL
C57Bl/6NCrl mice; [5]
  mean blood loss: 16.0 µL
  reduction of blood loss compared to vehicle: about 50%
C57Bl/6NCrl mice; [6]
  mean blood loss: 18.7 µL
  reduction of blood loss compared to vehicle: about 64%
C57Bl/6NCrl mice; 1.0 mg/kg i.v., entire 60 minutes
  mean blood loss: 22.8 µL
C57Bl/6NCrl mice; 1.0 mg/kg i.v., first 30 minutes
  mean blood loss: 12.2 µL
C57Bl/6NCrl mice; 1.0 mg/kg i.v., second 30 minute period
  mean blood loss: 10.6 µL
C57Bl/6NCrl mice; 10 mg/kg subcutaneous, 60 minutes
  reduction of blood loss compared to vehicle: approximately 58%
FVIII-deficient mice
  protective effect on joint bleeding (summary bleeding score): significantly greater than the effect of 10 IU/kg ADVATE, but less than 100 IU/kg ADVATE
FIX knock-out mice
  effect on median total blood loss: did not lead to a significant reduction in median total blood loss
[1]; 1 mg/kg peptide content, intravenous
  HL_λ_z [h] (intravenous): 19.8 h
[1]; 1 mg/kg peptide content, s.c. AUC vs i.v. AUC
  Bioavailability [%] (s.c.): 73.3%
fl-TFPI / ASGPR
  fl-TFPI interaction with ASGPR in presence of peptide: diminished the ASGPR-fl-TFPI interaction
FVIII knock-out mice
  effect on median total blood loss: did not reduce median total blood loss over that observed in buffer-treated animals
[4]
  coagulation parameters: restored prolonged coagulation parameters in Hem A blood
fl-TFPI / LRP
  fl-TFPI interaction with LRP in presence of peptide: slight decrease in fl-TFPI LRP interaction
